Results on one molecule are retold here after US9655965B2, “Radiosensitizer compounds for use in combination with radiation” (priority 2013, dated 2017).

Data set [1] has as its system cisplatin-resistant human lung cancer (HTB-161) cells. In words: In vitro radiosensitizing effect, 18-day clonogenic assay. The format is cell-based. The following applies: HTB-161, 12-hr treatment, 0-10 Gy 225 keV X-ray. The source says:
(§1) Dibromo-diamino-benzene (Dibromo-phenylenediamine, Compound B) was obtained from TCI—America. Diiodo-diaminobenzene (Compound C) were synthesized, purified and crystallized in our laboratory, and the structures and purity were examined by NMR and mass spectrometry. MEM and fetal bovine serum (FBS), penicillin G and streptomycin were obtained from Hyclone Laboratories (UT, USA). Stock solution of cisplatin was freshly prepared in ultrapure water or saline, and stock solutions of Compounds A, B, C, D were prepared in pure ethanol, where the final concentration of ethanol was ≦1% when treated to cells.
A human skin diploid fibroblast (GM05757 cell line) was obtained from the Coriell Cell Repository directly, while the human cervical cancer cell line (HeLa, ATCC#: CCL-2; or ME-180), human ovarian cancer cell line (NIH:OVCAR-3, ATCC#: HTB-161) and human lung cancer cell line (A549, ATCC#: CCL-185™), together with RPMI 1640, F-12K, McCoy's 5 A and L-15 culture media, were obtained from the American Type Culture Collection (ATCC) directly. Fetal bovine serum (FBS) was obtained from Hyclone Laboratories (UT, USA). The GM05757 normal cells and HeLa cells were cultivated with MEM (Hyclone) supplemented with 10% FBS, 100 units/mL penicillin G and 100 μg/mL streptomycin (Hyclone). […]

Data set [2] relates to human normal cells (GM05757). In words: In vitro toxicity in human normal cells, 72-hr treatment, MTT assay. The format is cell-based. The following applies: GM05757, 72-hr treatment, without ionizing radiation, 0-50 μM cisplatin, 0-200 μM compounds.
Description: as §1, with “TCI-America.” for “TCI—America.”
(§2) A human skin diploid fibroblast (GM05757 cell line) was obtained from the Coriell Cell Repository directly. Fetal bovine serum (FBS) was obtained from Hyclone Laboratories (UT, USA). The GM05757 normal cells were cultivated with MEM (Hyclone) supplemented with 10% FBS, 100 units/mL penicillin G and 100 μg/mL streptomycin (Hyclone). The cells were maintained at 37° C. in a humidified atmosphere containing 5% CO2.
(§3) The radiosensitizing effects of RSCs on cell viability were determined by the 3-[4,5-dimethylthiazol-2-yl]-2,5-diphenyl tetrazoliumbromide (MTT) assay. Cells were cultured in 96-well plates (5×10^3 cells/well) for 24 h. The culture medium was replaced by fresh culture medium and incubated for 72 h with varying drug concentrations. The MTT assay of cell viability was then conducted. Briefly, 100 μl new medium without phenol red containing 1.2 mM MTT (sigma) (i.e., adding 10 μl 12 mM MTT stock solution in PBS) were added to each well and incubated for 4 h. The medium was then removed, and the formazan crystals solubilized by 100 μL/well DMSO (or alternatively by 100 μl/well SDS and incubated for another 4 h). The surviving fraction was determined by measuring the absorbance at 540 nm (570 nm for SDS solubilization) using a Multiskan Spectrum UV/Vis microplate reader (Thermo Scientific), which is directly proportional to the number of viable cells.
For orientation: Tetrazolium dyes change colour on reduction, which living cells bring about.

Data set [3] concerns human normal cells (GM05757). In words: In vitro radiation-induced toxicity in human normal cells, MTT assay 12 days after X-ray. The format is cell-based. The note with it: GM05757, 12-hr treatment, then 0-10 Gy 225 keV X-ray, MTT at 12 days.
Description: as §1, with “TCI-America.” for “TCI—America.”
as §2
as §3, with “12” for “72”, “concentrations. The cells were then irradiated by 225 kV X-ray (PRECISION X-RAD IR 225) at a dose rate of 2 Gy/min with various X-ray doses. After irradiation, the cells were incubated for 12 days.” for “concentrations.”, “The medium was then removed, and the formazan crystals solubilized by 100 μL/well DMSO (or alternatively by 100 μl/well SDS and incubated for another 4 h).” left out

The subject of another data set is SCID mice. In words: In vivo toxicity of Compound B in SCID mice. As for the experimental part:
The three groups (five 6-8 week SCID mice/group) in the experiment were: (1) control article (5% EtOH/medium); (2) Compound B 5 mg/kg in 5% EtOH/medium; and (3) Compound B 7 mg/kg in 5% EtOH/medium, as shown in Table 1. Compound B was injected IP every day for 10 days.
6.1.2 Mouse and Compound B Solution Preparation: • 6-8 week SCID mice were used in this study; Compound B as an exemplary RSC was dissolved in 5% EtOH: 95% (cell culture) medium (≈1:20).
6-8 week SCID Mice were individually weighed and injected intraperitoneally (IP) according to body weight for an injection concentration as outlined in the study group table above. […]
The overall drug toxicity in mice was observed by a survival assay and body weight measurements, and the acute drug toxicity was measured by blood collection and histology. The hepatotoxicity (ALT, ALP, AST), nephrotoxicity (blood BUN, creatinine), and electrolytes (Na, K, etc) were analyzed by HPLC-mass spectroscopy. […]
All animals were observed post administration, and at least once a day, more if deemed necessary, during the pre-treatment and treatment periods for mortality and morbidity. In particular, animals were monitored for signs of ill health such as body weight loss, change in appetite, behavior changes such as altered gait, lethargy and gross manifestations of stress.

Entries after “also recorded” stand apart in the source; their conditions may differ.

Regarding `Nc1cc(Br)c(Br)cc1N` [Compound B, 4,5-dibromo-1,2-phenylenediamine], the “enhancement of radiosensitivity of cisplatin-resistant cancer cells to X-ray” value in data set [1] is given as “significant enhancement in the radiosensitivity”. Further, the “toxicity toward human normal cells” value in data set [2] is on record as “essentially no toxicity; also recorded: little toxicity up to 200 μM”. The “radiation toxicity in human normal cells” value in data set [3] was “no radiation toxicity”. Further, in the data set with SCID mice (IP 0, 5 and 7 mg/kg daily for 10 days), the “overall toxicity in mice (survival, body weight)” value is given as “no overall drug toxicity; also recorded: no overall toxicity in mice”. In addition, the “survival rate of mice” value in the data set on SCID mice (SCID, mouse, in vivo, 10 days) was 100%.
